Results from publication PMC9653453, “Development of truncated elastin-like peptide analogues with improved temperature-response and self-assembling properties” (Scientific Reports, 2022).
Values joined by “and” are separate entries in the source; they are usually repeats but may differ in a detail not shown here. Identical values can stand only once. Ends that are not written are not given here.

Assays:
[1] = Optical microscopy of peptide aggregates with image analysis of particle size; type: physicochemical; conditions: peptide 10 mg/mL, phosphate buffer pH 7.4
Method: The morphology of the coacervates of (FPGVG)4, (FPGV)4, and (FPG)4 was observed using optical microscopy. Light field observation was performed using a Leica DM IL LED microscope (Leica Microsystems CMS, Wetzlar, Germany) equipped with HI PLAN 40 × (Leica Microsystems CMS) and HC PLAN 10 × (Leica Microsystems CMS) objectives. Each peptide was dissolved in phosphate buffer (27.4 mM Na2HPO4, 17.8 mM NaH2PO4, at pH 7.4) to a concentration of 10 mg/mL and applied on a glass slide. Sample imaging was performed below and above the Tt of each peptide using a Thermo Plate TP-CHSQM (Tokai Hit Co., Ltd., Shizuoka, Japan). Sample images above Tt were taken 3 min after the sample reached the target temperature. The details of the image analysis is shown in the Supplementary Information file.
Size distribution of coacervates of ELP analogues formed above the Tt was analyzed using optical microscopy images of each peptide. Image analysis was performed using Image J/Fiji (NIH, USA), an open-source image analysis software.^2 Spatial calibration was carried out using […] in original images. The images of peptide coacervates were converted to a binary image via the menu command Image > Type > 8-bit. Using "analyze particle" command, the Feret diameters of the particles within the image were measured.

[2] = Turbidity measurement (phase transition temperature Tt, coacervation) in phosphate buffer pH 7.4; type: physicochemical; conditions: for Coacervation on heating (in words): peptide 50 mg/mL (69.5 mM); for Tt, phase transition temperature: heating 0.5 ℃/min from 5 ℃, mean ± SE, at least three measurements
Method: Turbidity measurements were performed in accordance with previous reports. The temperature-dependent self-assembling properties of the ELP analogues were evaluated using a JASCO V-660 spectral photometer (JASCO Co., Tokyo, Japan). Peptide sample solutions of different concentrations (2.0, 5.0, 10, 20, 30, or 50 mg/mL) were prepared by dissolving each peptide (except for AADAAC-(FPGV)n) in phosphate buffer (27.4 mM Na2HPO4, 17.8 mM NaH2PO4, pH 7.4). AADAAC-(FPGV)4 was dissolved in Tris–HCl buffer solution (50.0 mM Tris, at pH 8.4 or 50.0 mM Tris, 154 mM NaCl, at pH 8.4) to prepare sample solutions of a concentration of 0.5 or 10 mg/mL in the absence or presence of the equimolar amount of CdCl2. Turbidity was measured at 400 nm with increasing or decreasing temperature at a rate of 0.5 ℃/min from 5 ℃. The concentration of each sample solution was measured at least three times. The self-assembling property was described by the phase transition temperature (Tt), which is the temperature at which the turbidity of the solution reaches half the maximum value.

[3] = Dynamic light scattering (DLS) size distribution of coacervates; type: physicochemical; conditions: phosphate buffer pH 7.4; for Temperature-dependent particle size by DLS (in words): 10 to 50 ℃ in 10 ℃ steps, peptide concentrations as in Fig. 3 (2.0-50 mg/mL); for Hydrodynamic diameter (DLS): peptide 10 mg/mL, filtered 0.2 µm
Method: The distribution of the particle size in the truncated ELP analogue solution was analyzed via DLS using Zetasizernano ZS (Malvern Instruments Ltd., Worcestershire, U.K.) in a measurement cell ZEN0112 (Malvern Instruments Ltd.)[33]. Peptide samples of different concentrations (2.0, 10, 20, 30, or 50 mg/mL) were prepared by dissolving each peptide in phosphate buffer (27.4 mM Na2HPO4, 17.8 mM NaH2PO4, pH 7.4) and filtered using the Millex-LG filter (pore size 0.2 µm, Merck Millipore) before measurement. DLS analysis was performed by increasing the temperature at 10 ℃ intervals from 10 to 50 ℃. Measurement duration was selected automatically. Parameter dataset “protein” (dataset: refractive index, 1.450; absorption, 0.001) was used as the material parameter, and parameter dataset “water” (dataset: refractive index, 1.330; viscosity, 0.8872) was chosen as the dispersant parameter. Attenuation was selected automatically. Each concentration was measured at least three times.

[4] = RP-UPLC retention time, used as measure of peptide hydrophobicity; type: physicochemical; conditions: RP-UPLC-MS; chromatographic
Method: Peptide synthesis was carried out using the conventional solid-phase peptide synthesis procedure (see supplementary information). The synthesized peptides were purified using RP-HPLC. The purity and molecular weight of each peptide were confirmed using RP-UPLC-MS (Table S1 and Fig. S1). […]
Retention times of each peptide were determined by RP-UPLC-MS.

[5] = Colorimetric (xylenol orange) determination of Cd^2+ removal by peptide coacervation; conditions: peptide 1.0 mg/mL, mean ± SE
Method: Colorimetric analyses of cadmium ions (Cd^2+) were carried out to evaluate the number of metal ions absorbed into the coacervation phase of the peptides by using a spectral photometer (JASCO V-660)[45]. […] The peptide solutions were incubated at 4 ℃ for 3, 6, or 12 h and then at 60 ℃ for 1.5 h to separate into the lower coacervation phase from the upper equilibrium solution phase. After incubation, the peptide solution was immediately centrifuged at room temperature for 2 min (6,200 rpm) to remove aggregates. An aliquot of 333 µL of supernatant of the equilibrium solution phase was added to 600 µL of acetate buffer solution (pH5.4) including 67 μM of XO and incubated for 10 min. Subsequently, the concentrations of Cd^2+ or Zn^2+ were determined by measuring the absorbance at 575 nm or 550 nm, respectively, which corresponds to the absorbance of the metal-XO complex. The amount of metal ions absorbed in the peptide solution was determined by the calibration line, which was prepared in the same manner by using a series of standard CdCl2 or ZnCl2 aqueous solutions of known concentrations. The homogeneity of variances between the concentration of each metal ion in the supernatant and the control solution was confirmed using the F test. The statistical significance of the difference between the concentration of each metal ion in the supernatant and the control solution was determined using the Student's t-test. Results were considered statistically significant at P values of ≤ 0.01.

[6] = Turbidity measurement (phase transition temperature Tt, coacervation) in phosphate buffer pH 7.4; type: physicochemical; conditions: peptide 1.0 mg/mL, turbidity at 400 nm, heating 0.5 ℃/min from 5 ℃, half-maximal turbidity, mean ± SE, at least three measurements
[7] = phosphate buffer pH 7.4, turbidity at 400 nm
[8] = peptide 5.0 mg/mL, phosphate buffer pH 7.4, turbidity at 400 nm, half-maximal turbidity
[9] = peptide 10 mg/mL, phosphate buffer (27.4 mM Na2HPO4, 17.8 mM NaH2PO4, pH 7.4), turbidity at 400 nm, Tt = temperature at half-maximal turbidity
[10] = peptide 2.0 mg/mL, phosphate buffer pH 7.4, turbidity at 400 nm, half-maximal turbidity

Substance | UPLC retention time (measure of hydrophobicity) [4] [min] | Tt, phase transition temperature [2, 8] [°C] | Tt, phase transition temperature [2, 9] [°C] | Temperature-dependent particle size by DLS (in words) [3] | also measured
FPGFPGFPGFPG-NH2 [(FPG)4, H-(FPG)4-NH2] | 1.835 |  |  | formed irreversible aggregates in the aqueous solution at 10 °C | Morphology of aggregates (optical microscopy, in words) [1]: filamentous aggregates; Aggregation behaviour in aqueous solution (in words) ([2]; peptide 10 mg/mL, aqueous solution / phosphate buffer pH 7.4, with elapsed time without a temperature rise): formed irreversible aggregates
FPGFPGV-NH2 [(FPG)(FPGV), H-(FPG)(FPGV)-NH2] | 0.760 |  |  | did not show micrometer-sized particles | Coacervation on heating (in words) [2, 7]: did not show coacervation
FPGVFPGV-NH2 [(FPGV)2] | 0.583 |  |  | did not show micrometer-sized particles | Turbidity change / coacervation on heating (in words) ([2]; peptide 30 mg/mL (36.7 mM), phosphate buffer pH 7.4, turbidity at 400 nm): did not exhibit turbidity change
FPGVFPGVFPGV-NH2 [(FPGV)3] | 1.739 | 71.6 ± 0.8 | 45.2 ± 0.9 | formed sub-micron particles below Tt, which grew into micrometer-sized particles above Tt | 
FPGVFPGVFPGVFPGV-NH2 [(FPGV)4] | 2.431 | 23.4 ± 0.1 | 17.0 ± 0.2 | rapidly formed micrometer-sized particles at 20 °C | Morphology of aggregates (optical microscopy, in words) [1]: spherical aggregates; Particle size of coacervates (optical microscopy image analysis, Feret diameter) ([1]; above Tt ((FPGVG)4 40 °C, (FPGV)4 25 °C), ImageJ/Fiji): 2–4 µm; Concentration of metal ion in the supernatant ([5]; Cd^2+ (0.236 mM CdCl2), incubation 12 h at 4 ℃ then 60 ℃ 1.5 h, Tris-HCl (50.0 mM Tris, 599 mM NaCl, pH 8.0), at least three measurements): 19.0 ± 0.97 ppm; Removal efficiency ([5]; Cd^2+, incubation 12 h, versus control without peptide): 27.2% and 27.2 ± 0.04%; Tt, phase transition temperature [2, 10]: 36.7 ± 0.3 °C; Tt, phase transition temperature [6]: 51.3 ± 0.1 °C

More lines, main results first:

UPLC retention time (measure of hydrophobicity) [4] [min] | Tt, phase transition temperature [2, 8] [°C] | Tt, phase transition temperature [2, 9] [°C] | Substance | Temperature-dependent particle size by DLS (in words) [3] | also measured
0.466 |  |  | FPGVFPG-NH2 [(FPGV)(FPG)] | did not show micrometer-sized particles | Coacervation on heating (in words) [2, 7]: did not show coacervation
2.691 | 25.6 ± 1.2 | 20.5 ± 0.1 | FPGVGFPGVGFPGVGFPGVGFPGVG-NH2 [(FPGVG)5, reference compound] |  | Tt, phase transition temperature [2, 10]: 39.0 ± 0.2 °C; Hydrodynamic diameter (DLS) ([3]; at 10 ℃, Zetasizer cumulant fit): approximately 3 nm; Hydrodynamic diameter (DLS) ([3]; at temperatures above 20 ℃): 3–5 µm; Tt, phase transition temperature [6]: 56.6 ± 1.3 °C
2.493 |  | 45.3 ± 0.6 | VFPGVFPGVFPGVFPG-NH2 [(VFPG)4, H-(VFPG)n-NH2 (n = 4)] |  | 
